The values that follow come from patent US20140336073A1, “METHOD OF DETERMINATION OF CANCER CELL DRUG SENSITIVITY TOWARDS AURORA KINASE INHIBITORS” (PALACKY UNIVERSITY, OLOMOUC, priority 2011, published 2014).

Series [1] deals with HCT116 p53−/−: CYC116 resistant clones. The series can be described thus: MTT based cell proliferation assay of ABT-263. The settings on record: polyploid clones, 96 hrs MTT. Here is the method:
(§1) The MTT assay was performed in three independent replicates (n=3).
(§2) This method is performed based on the principle that viable cells can reduce yellow colored MTT (3-(4,5-dimethylthiazol-2-yl)-2,5-diphenyltetrazolium bromide) salt to purple colored formazan. The intensity of the purple colored produced is directly proportional to number of viable cells, which can be measured […]. To determine the half inhibitory concentration (IC50) of any medicinal agent MTT assay is very reliable and well accepted. […] The assay was carried out in 2 technical replicates for each concentration and in 3 biological replicates. Alongside blank and controls were included and incubated for 96 hrs. At the end of the assay time point 10 μl of MTT/well (Sigma) (10 mg/ml) was added and incubated until the appearance of violet formazan crystals. The formazan was dissolved with 100 μl/well 10% aqueous SDS (pH: 5.5) by incubating the plates at 37° C. overnight. The optical density was measured at 540 nm using the Labsystem IMS reader and the […] values were determined using Chemorezist software.

Series [2] concerns p53−/− ZM447439 resistant clones. The series can be described thus: MTT based cell proliferation assay of ABT-263. The settings on record: diploid p53−/− ZM447439 resistant clones, 96 hrs MTT. The method, then: as §1, §2
Series [3] concerns p53+/+ ZM447439 resistant clones. The series can be described thus: MTT based cell proliferation assay of ABT-263. The conditions noted are these: diploid p53+/+ ZM447439 resistant clones, 96 hrs MTT. The method, then: as §1, §2
The target of another series is Bcl-w (Homo sapiens, UniProt Q92843). The conditions noted are these: cited from earlier work.
Sequence of Bcl-w (Q92843 whole entry): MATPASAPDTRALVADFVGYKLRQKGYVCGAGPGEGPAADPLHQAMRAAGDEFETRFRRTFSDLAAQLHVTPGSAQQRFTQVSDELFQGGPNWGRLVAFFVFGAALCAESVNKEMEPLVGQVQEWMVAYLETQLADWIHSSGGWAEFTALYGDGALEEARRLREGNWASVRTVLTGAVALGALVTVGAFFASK
The test system of series [4] is R2.3 (HCT116 p53−/− CYC116 resistant clone). The series can be described thus: Cell proliferation (MTT) IC50, cross-resistance profile. The series is classed as cell-based. The settings on record: for IC50: Homo sapiens, HCT-116, clone R2.3; for fold increase of IC50 vs parent: clone R2.3 vs HCT116 p53−/− parent. Here is the method:
(§3) Colonies were isolated and bulked up for further studies. […] [1]
as §2

Series [5] deals with R4.2 (HCT116 p53−/− ZM447439 resistant clone). Described as above. Type of series: cell-based. The settings on record: for IC50: Homo sapiens, HCT-116, clone R4.2; for fold increase of IC50 vs parent: clone R4.2 vs HCT116 p53−/− parent. Here is the method:
as §3, §2

Series [6] concerns R4.3 (HCT116 p53−/− ZM447439 resistant clone). Described as above. The settings on record: for IC50: Homo sapiens, HCT-116, clone R4.3; for fold increase of IC50 vs parent: clone R4.3 vs HCT116 p53−/− parent. Type of series: cell-based. Here is the method:
as §3, §2

Series [7] has as its system R1.1 (HCT116 p53+/+ CYC116 resistant clone). Described as above. The series is classed as cell-based. The settings on record: for IC50: Homo sapiens, HCT-116, clone R1.1; for fold increase of IC50 vs parent: clone R1.1 vs HCT116 p53+/+ parent. The method, then:
as §3, §2

For series [8], the system named is R1.2 (HCT116 p53+/+ CYC116 resistant clone). The description is as above. The settings on record: for IC50: Homo sapiens, HCT-116, clone R1.2; for fold increase of IC50 vs parent: clone R1.2 vs HCT116 p53+/+ parent. The series is classed as cell-based. Here is the method: as §3, §2
Series [9] relates to R2.1 (HCT116 p53−/− CYC116 resistant clone). The series is described as above. The settings on record: for IC50: Homo sapiens, HCT-116, clone R2.1; for fold increase of IC50 vs parent: clone R2.1 vs HCT116 p53−/− parent. The series is classed as cell-based. The method, then:
as §3, §2

Series [10] concerns R2.2 (HCT116 p53−/− CYC116 resistant clone). Described as above. The series is classed as cell-based. The settings on record: for IC50: Homo sapiens, HCT-116, clone R2.2; for fold increase of IC50 vs parent: clone R2.2 vs HCT116 p53−/− parent. The method, then:
as §3, §2

For series [11], the system named is R3.1 (HCT116 p53+/+ ZM447439 resistant clone). Described as above. The series is classed as cell-based. The settings on record: for IC50: Homo sapiens, HCT-116, clone R3.1; for fold increase of IC50 vs parent: clone R3.1 vs HCT116 p53+/+ parent. Here is the method: as §3, §2
Series [12] deals with R1.3 (HCT116 p53+/+ CYC116 resistant clone). The series is described as above. Type of series: cell-based. The settings on record: for IC50: Homo sapiens, HCT-116, clone R1.3; for fold increase of IC50 vs parent: clone R1.3 vs HCT116 p53+/+ parent. Here is the method:
as §3, §2

For series [13], the system named is R3.2 (HCT116 p53+/+ ZM447439 resistant clone). Described as above. Type of series: cell-based. The settings on record: for IC50: Homo sapiens, HCT-116, clone R3.2; for fold increase of IC50 vs parent: clone R3.2 vs HCT116 p53+/+ parent. The method, then:
as §3, §2

Series [14] relates to R3.3 (HCT116 p53+/+ ZM447439 resistant clone). The description is as above. The settings on record: for IC50: Homo sapiens, HCT-116, clone R3.3; for fold increase of IC50 vs parent: clone R3.3 vs HCT116 p53+/+ parent. Type of series: cell-based. The method, then: as §3, §2
The test system of series [15] is R4.1 (HCT116 p53−/− ZM447439 resistant clone). Described as above. The conditions noted are these: for IC50: Homo sapiens, HCT-116, clone R4.1; for fold increase of IC50 vs parent: clone R4.1 vs HCT116 p53−/− parent. The series is classed as cell-based. Here is the method: as §3, §2
The test system of a further series is HCT116 p53−/− parent. Described as above. The series is classed as cell-based. The conditions noted are these: Homo sapiens, HCT-116.
Another series concerns HCT116 p53+/+ parent. The series can be described thus: cells. The conditions noted are these: for IC50: Homo sapiens. Here is the method:
as §2

The subject of series [16] is one HCT116 p53+/+: CYC116 resistant clone. The series can be described thus: MTT assay of CYC116 with or without Bcl-xL siRNA knockdown. The series is classed as cell-based. The conditions noted are these: Homo sapiens, HCT-116. Here is the method:
as §2
On the technique in general: Tetrazolium assays rely on reduction of a dye to a coloured formazan, in cell work by metabolically active cells.

In a further series the test system is primary tumor samples. The series can be described thus: 96-h MTT cell proliferation assay on primary tumor biopsies. The series is classed as cell-based. The conditions noted are these: Homo sapiens.
The target in a further series is VEGFR2 (Homo sapiens, UniProt P35968). The settings on record: cited from earlier work.
Sequence of VEGFR2 (P35968 20-1356): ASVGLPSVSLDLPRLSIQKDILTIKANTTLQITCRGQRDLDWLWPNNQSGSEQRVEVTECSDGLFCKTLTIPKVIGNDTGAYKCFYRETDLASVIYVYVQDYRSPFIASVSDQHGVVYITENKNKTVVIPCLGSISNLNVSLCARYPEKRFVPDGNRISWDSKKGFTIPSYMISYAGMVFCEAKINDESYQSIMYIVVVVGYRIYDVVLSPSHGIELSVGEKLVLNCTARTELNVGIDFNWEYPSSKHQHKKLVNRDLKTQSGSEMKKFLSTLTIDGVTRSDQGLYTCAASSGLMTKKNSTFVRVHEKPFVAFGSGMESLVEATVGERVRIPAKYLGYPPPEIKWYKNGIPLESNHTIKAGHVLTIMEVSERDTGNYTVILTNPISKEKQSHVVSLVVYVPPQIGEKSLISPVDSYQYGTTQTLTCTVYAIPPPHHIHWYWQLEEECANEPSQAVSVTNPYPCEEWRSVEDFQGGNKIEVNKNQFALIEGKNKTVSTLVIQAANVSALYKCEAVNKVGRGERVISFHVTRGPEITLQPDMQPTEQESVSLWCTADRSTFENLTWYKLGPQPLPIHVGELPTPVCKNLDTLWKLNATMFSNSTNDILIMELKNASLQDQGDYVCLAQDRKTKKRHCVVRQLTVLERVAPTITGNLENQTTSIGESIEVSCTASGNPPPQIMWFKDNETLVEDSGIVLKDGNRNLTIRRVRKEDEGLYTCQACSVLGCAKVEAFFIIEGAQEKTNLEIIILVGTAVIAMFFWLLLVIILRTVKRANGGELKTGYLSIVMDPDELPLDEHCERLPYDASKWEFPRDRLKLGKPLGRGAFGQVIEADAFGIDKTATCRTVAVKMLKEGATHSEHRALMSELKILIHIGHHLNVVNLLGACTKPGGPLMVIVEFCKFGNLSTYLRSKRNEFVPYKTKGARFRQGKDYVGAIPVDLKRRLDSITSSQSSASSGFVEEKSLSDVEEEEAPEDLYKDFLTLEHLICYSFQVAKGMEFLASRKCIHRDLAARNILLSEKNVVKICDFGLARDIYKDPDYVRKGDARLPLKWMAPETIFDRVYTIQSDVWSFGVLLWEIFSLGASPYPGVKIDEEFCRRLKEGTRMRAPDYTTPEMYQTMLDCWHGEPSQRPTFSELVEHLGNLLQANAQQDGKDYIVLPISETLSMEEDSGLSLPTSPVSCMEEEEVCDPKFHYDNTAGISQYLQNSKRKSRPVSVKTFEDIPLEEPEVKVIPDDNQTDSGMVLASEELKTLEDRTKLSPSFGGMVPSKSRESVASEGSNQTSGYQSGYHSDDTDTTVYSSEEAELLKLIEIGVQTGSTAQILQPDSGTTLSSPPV
For a further series, the target named is Flt-3 (Homo sapiens, UniProt P36888). The conditions noted are these: cited from earlier work.
Sequence of Flt-3 (P36888 27-993): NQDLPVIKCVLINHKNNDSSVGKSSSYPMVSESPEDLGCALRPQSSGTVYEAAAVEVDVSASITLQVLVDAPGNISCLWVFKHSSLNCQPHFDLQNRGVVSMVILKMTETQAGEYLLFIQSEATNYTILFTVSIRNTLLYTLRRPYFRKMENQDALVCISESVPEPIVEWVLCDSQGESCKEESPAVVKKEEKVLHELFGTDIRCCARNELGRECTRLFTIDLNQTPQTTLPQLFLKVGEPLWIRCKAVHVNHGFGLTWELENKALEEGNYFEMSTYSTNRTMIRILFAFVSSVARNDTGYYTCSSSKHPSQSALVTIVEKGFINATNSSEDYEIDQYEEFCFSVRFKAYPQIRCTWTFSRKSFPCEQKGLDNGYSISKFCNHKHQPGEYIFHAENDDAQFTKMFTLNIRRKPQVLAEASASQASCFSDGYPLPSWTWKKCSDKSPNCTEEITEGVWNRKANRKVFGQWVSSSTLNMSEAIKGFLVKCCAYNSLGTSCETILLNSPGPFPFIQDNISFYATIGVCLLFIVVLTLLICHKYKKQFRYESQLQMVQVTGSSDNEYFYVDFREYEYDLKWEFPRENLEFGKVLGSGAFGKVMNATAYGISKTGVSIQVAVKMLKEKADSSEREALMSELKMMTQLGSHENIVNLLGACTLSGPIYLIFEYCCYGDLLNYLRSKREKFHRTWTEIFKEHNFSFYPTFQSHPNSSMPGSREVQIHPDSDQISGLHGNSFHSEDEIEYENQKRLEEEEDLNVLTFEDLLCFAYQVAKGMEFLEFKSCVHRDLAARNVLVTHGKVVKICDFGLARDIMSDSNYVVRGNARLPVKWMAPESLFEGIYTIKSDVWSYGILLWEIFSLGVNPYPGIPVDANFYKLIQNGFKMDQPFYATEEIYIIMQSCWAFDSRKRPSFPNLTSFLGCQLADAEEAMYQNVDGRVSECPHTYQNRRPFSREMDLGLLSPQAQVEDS
The next series concerns CYP1A1. The series can be described thus: CYP1A1 expression after CYC116 treatment for 48 h. Type of series: cell-based. The conditions noted are these: HCT116 and HCT116 p53−/− treated with CYC116 for 48 h. The source says: CYP1A1 is involved in the metabolism of polycyclic aromatic hydrocarbons (PAH). In tobacco smokers CYP1A1 transforms PAH into procarcinogens. CYP1A1 expression was reported in pulmonary cancers and also altered expression in many lung tumors (McLemore T. L. et al., Journal of the National Cancer Institute 1990; 82, 1333-39).

Read-outs that look alike come from different tables or passages of the source.

Procedure for HCT116 p53−/− parent: This method is performed based on the principle that viable cells can reduce yellow colored MTT (3-(4,5-dimethylthiazol-2-yl)-2,5-diphenyltetrazolium bromide) salt to purple colored formazan. The intensity of the purple colored produced is directly proportional to number of viable cells, which can be measured calorimetrically. […] The assay was carried out in 2 technical replicates for each concentration and in 3 biological replicates. Alongside blank and controls were included and incubated for 96 hrs. At the end of the assay time point 10 μl of MTT/well (Sigma) (10 mg/ml) was added and incubated until the appearance of violet formazan crystals. The formazan was dissolved with 100 μl/well 10% aqueous SDS (pH: 5.5) by incubating the plates at 37° C. overnight. The optical density was measured at 540 nm using the Labsystem IMS reader and the 1050 values were determined using Chemorezist software.

The term Ki denotes a measure of affinity in units of concentration, obtained from inhibition or displacement. In the case of `CC1(C)CCC(c2ccc(Cl)cc2)=C(CN2CCN(c3ccc(C(=O)NS(=O)(=O)c4ccc(N[C@H](CCN5CCOCC5)CSc5ccccc5)c(S(=O)(=O)C(F)(F)F)c4)cc3)CC2)C1` [ABT-263, (R)4-(4-((4′-chloro-4,4-dimethyl-3,4,5,6-tetrahydro[1,1′-biphenyl]-2-yl)methyl)piperazin-1-yl)-N-((4-((4-morpholino-1-(phenylthio)butan-2-yl)amino)-3-((trifluoromethyl)sulfonyl)phenyl)sulfonyl)benzamide], the “response to ABT-263 compared to parent HCT116 p53−/− cells” value in [1] is reported as “significant cross-resistance”. In addition, the “response to ABT-263” value in series [2] and in [3] was “resistant” throughout. The inhibition constant (Ki) at Bcl-w is < 1 nM.
For orientation: IC50 means the concentration at which inhibition is half-maximal. Regarding `CCN(CCCOc1ccc2c(Nc3cc(CC(=O)Nc4cccc(F)c4)n[nH]3)ncnc2c1)CCOP(=O)(O)O` [AZD1152, 2-[ethyl-[3-[4-[[5-[2-(3-fluoroanilino)-2-oxoethyl]-1Hpyrazo[3 yl]amino]quinazolin7-yl]oxypropyl]amino]ethyldihydrogen phosphate], the IC50 in series [4] is > 50000 nM; in series [5], > 50000 nM; in series [6], > 50000 nM; in series [7], 17000 nM; in [8] it was 18000 nM; in series [9], > 50000 nM. For the same compound, the 50% inhibitory concentration (IC50) was > 50000 nM in series [10]; 36000 nM in series [11]; 11000 nM in series [12]; 8000 nM in series [13]; 70 nM in series [14]; > 50000 nM in [15]. Further, the IC50 was > 50000 nM in the series with HCT116 p53−/− parent and 10 nM in the series with HCT116 p53+/+ parent (HCT-116, read-out: mean IC50). In addition, the “fold increase of IC50 vs parent” value in series [7] is 1700 fold; in series [8], 1800 fold; in series [11] it was 3600 fold; in [12], 1100 fold; in series [13] it was 800 fold; in series [14], 7 fold.
As to `Cc1nc(N)sc1-c1ccnc(Nc2ccc(N3CCOCC3)cc2)n1` [CYC116, 4-methyl-5-(2-(4-morpholinophenylamino)pyrimidin-4-yl)thiazol-2-amine], the IC50 in [16] (read-out: IC50 value) is 6000 nM; in series [16] (read-out: IC50 value after knockdown of Bcl-xL), 900 nM; with primary tumor samples (13 sensitive primary tumor samples), ≤ 4420 nM; in the series on primary tumor samples (14 resistant primary tumor samples) it was ≤ 95000 nM; in the series on HCT116 p53+/+ parent (HCT-116, read-out: IC50 value), 340 nM. Besides, the “inhibition of VEGFR2” value at VEGFR2 was “inhibits”. Moreover, at Flt-3, the “inhibition of Flt-3” value is “inhibits”. Further, in the series with CYP1A1, the “up-regulation of CYP1A1” value is “not detected”. Further, in the series with HCT116 p53+/+ parent (Bcl-xL siRNA knockdown in HCT116 parent cell line (low Bcl-xL expression)), the “sensitization towards CYC116 by knockdown of Bcl-xL” value was “no sensitization effect”.
As for `O=C(O)c1ccc(Nc2ncc3c(n2)-c2ccc(Cl)cc2C(c2c(F)cccc2F)=NC3)cc1` [MLN8054, 4-[[9-chloro-7-(2,6-difluorophenyl)-5H-pyrimido[5,4-d][2]benzazepin-2-yl]amino]benzoic acid], the IC50 in series [4] is 18000 nM; in [5] it was 18600 nM; in series [6], 39000 nM; in series [7], 31000 nM; in [8], 15000 nM; in series [9] it was 30000 nM. Further, the IC50 in series [10] was determined as 3000 nM; in [11] it was 2000 nM; in series [12] it was 16000 nM; in series [13], 2000 nM; in [14], 400 nM; in series [15], 22000 nM. Besides, the IC50 in the series on HCT116 p53−/− parent amounted to 170 nM; in the series on HCT116 p53+/+ parent (HCT-116, read-out: mean IC50), 190 nM. The “fold increase of IC50 vs parent” value in series [4] worked out at 106 fold; in [5], 109 fold; in [6], 229 fold; in series [7], 163 fold; in [8], 79 fold; in series [9], 176 fold. The “fold increase of IC50 vs parent” value in series [10] came out at 18 fold; in [11], 10 fold; in series [12], 84 fold; in series [13], 10 fold; in [14], 2 fold; in [15] it was 129 fold.
On to `Cc1cc(Nc2cc(N3CCN(C)CC3)nc(Sc3ccc(NC(=O)C4CC4)cc3)n2)n[nH]1` [VX-680, N-[4-[4-[4-methylpiperazin-1-yl)-6-[(5-methyl-1H-pyrazol-3-yl)amino]pyrimidin-2-yl]sulfanylphenyl]cyclopropanecarboxamide], for which the IC50 in [4] is 2400 nM; in series [5], 1500 nM; in series [6] it was 3000 nM; in [7], 1900 nM; in series [8] it was 2000 nM; in [9], 4000 nM. The IC50 in [10] was 2000 nM; in series [11] it was 2600 nM; in [12] it was 1000 nM; in series [13] it was 700 nM; in [14], 90 nM; in series [15] it was 800 nM. Moreover, the IC50 is 100 nM with HCT116 p53−/− parent and 30 nM with HCT116 p53+/+ parent (HCT-116, read-out: mean IC50). Also, the “fold increase of IC50 vs parent” value stood at 24 fold in [4]; 15 fold in series [5]; 13 fold in series [6]; 63 fold in series [7]; 67 fold in series [8]; 40 fold in [9]. Besides, the “fold increase of IC50 vs parent” value was 20 fold in series [10]; 87 fold in [11]; 33 fold in series [12]; 23 fold in series [13]; 3 fold in [14]; 8 fold in [15].
